Four molecules from PubChem BioAssay AID1259407 (Chemical Carcinogenesis Research Information System (CCRIS), 2018) can be followed below.

The data set deals with CCRIS mutagenicity, Ames/micronucleus/aberration tests. Description: CCRIS mutagenicity studies.
Setting [1] is: Test System: AMES SALMONELLA TYPHIMURIUM, Strain/Indicator: TA98, Metabolic Activation: NONE, Method: STANDARD PLATE.
[2] abbreviates: Test System: AMES SALMONELLA TYPHIMURIUM, Strain/Indicator: TA100, Metabolic Activation: NONE, Method: STANDARD PLATE.
The mark [3] stands for this setting: Test System: AMES SALMONELLA TYPHIMURIUM, Strain/Indicator: TA1535, Metabolic Activation: NONE, Method: STANDARD PLATE.
The mark [4] stands for this setting: Test System: AMES SALMONELLA TYPHIMURIUM, Strain/Indicator: TA1537, Metabolic Activation: NONE, Method: STANDARD PLATE.
The mark [5] stands for this setting: Test System: AMES SALMONELLA TYPHIMURIUM, Strain/Indicator: TA98, Metabolic Activation: NONE, Method: PREINCUBATION
Setting [6] is: Test System: AMES SALMONELLA TYPHIMURIUM, Strain/Indicator: TA100, Metabolic Activation: NONE, Method: PREINCUBATION

The source made the active and inactive calls. The rule behind the calls is not given here.

`CCOC(=O)C(C)=O`: the mutagenic call by setting is: under setting [1], “inactive; negative”; (Test System: AMES SALMONELLA TYPHIMURIUM, Strain/Indicator: TA98, Metabolic Activation: RAT, LIVER, S-9, AROCLOR 1254, Method: STANDARD PLATE) “inactive; negative”; under setting [2], “inactive; negative”; (Test System: AMES SALMONELLA TYPHIMURIUM, Strain/Indicator: TA100, Metabolic Activation: RAT, LIVER, S-9, AROCLOR 1254, Method: STANDARD PLATE) “inactive; negative”; under setting [3], “inactive; negative”; (Test System: AMES SALMONELLA TYPHIMURIUM, Strain/Indicator: TA1535, Metabolic Activation: RAT, LIVER, S-9, AROCLOR 1254, Method: STANDARD PLATE) “inactive; negative”. For the same molecule, the mutagenic call under setting [4] is “inactive; negative” and the mutagenic call (Test System: AMES SALMONELLA TYPHIMURIUM, Strain/Indicator: TA1537, Metabolic Activation: RAT, LIVER, S-9, AROCLOR 1254, Method: STANDARD PLATE) is “inactive; negative”.
For the molecule `CC(C)=CCC[C@](C)(O)[C@@H]1CC=C(C)CC1`, the mutagenic call is “inactive; negative” (End Point: AMES SALMONELLA TYPHIMURIUM, Test System: TA97A, Metabolic Activation: NONE, Method: STANDARD PLATE); “inactive; negative” (End Point: AMES SALMONELLA TYPHIMURIUM, Test System: TA97A, Metabolic Activation: RAT, LIVER, S-9, AROCLOR 1254, Method: STANDARD PLATE); “inactive; negative” (End Point: AMES SALMONELLA TYPHIMURIUM, Test System: TA98, Metabolic Activation: NONE, Method: STANDARD PLATE); “inactive; negative” (End Point: AMES SALMONELLA TYPHIMURIUM, Test System: TA98, Metabolic Activation: RAT, LIVER, S-9, AROCLOR 1254, Method: STANDARD PLATE); “inactive; negative” (End Point: AMES SALMONELLA TYPHIMURIUM, Test System: TA100, Metabolic Activation: NONE, Method: STANDARD PLATE); “inactive; negative” (End Point: AMES SALMONELLA TYPHIMURIUM, Test System: TA100, Metabolic Activation: RAT, LIVER, S-9, AROCLOR 1254, Method: STANDARD PLATE). Besides, the mutagenic call (End Point: AMES SALMONELLA TYPHIMURIUM, Test System: TA1535, Metabolic Activation: NONE, Method: STANDARD PLATE) was “inactive; negative” and the mutagenic call (End Point: AMES SALMONELLA TYPHIMURIUM, Test System: TA1535, Metabolic Activation: RAT, LIVER, S-9, AROCLOR 1254, Method: STANDARD PLATE) was “inactive; negative”.
With `CCc1cccc(CC)c1N(COC)C(=O)CCl`, the mutagenic call (End Point: IN VITRO CHROMOSOMAL ABERRATIONS, Test System: PERIPHERAL BLOOD HUMAN LYMPHOCYTES, Metabolic Activation: NONE) is “inactive; negative; chromosomal aberrations not increased but chromatid-type aberrations i”; the mutagenic call (End Point: IN VITRO MICRONUCLEUS, Test System: HUMAN PERIPHERAL BLOOD LYMPHOCYTES, Metabolic Activation: NONE) was “active; positive; result at highest dose; variation among donors”; the mutagenic call (End Point: IN VITRO MICRONUCLEUS, Test System: HUMAN PERIPHERAL BLOOD LYMPHOCYTES, Metabolic Activation: S-9) was “active; positive; result at highest dose; variation among donors”; the mutagenic call (End Point: IN VITRO MICRONUCLEUS, Test System: PERIPHERAL BLOOD HUMAN LYMPHOCYTES, Metabolic Activation: NONE) was “active; positive; variation among donors”; the mutagenic call under setting [5] is “inactive; negative”; the mutagenic call under setting [1] is “inactive; negative”. The mutagenic call is “inactive; negative” (Test System: AMES SALMONELLA TYPHIMURIUM, Strain/Indicator: TA98, Metabolic Activation: RAT, LIVER, MICROSOMES, PHENOBARBITAL, Method: PREINCUBATION); “inactive; negative” (Test System: AMES SALMONELLA TYPHIMURIUM, Strain/Indicator: TA98, Metabolic Activation: S-9, Method: STANDARD PLATE); “inactive; negative” under setting [6]; “inactive; negative” under setting [2]; “active; positive” (Test System: AMES SALMONELLA TYPHIMURIUM, Strain/Indicator: TA100, Metabolic Activation: RAT OLFACTORY S-9, Method: PREINCUBATION); “inactive; negative” (Test System: AMES SALMONELLA TYPHIMURIUM, Strain/Indicator: TA100, Metabolic Activation: RAT RESPIRATORY S-9, Method: PREINCUBATION). In addition, the mutagenic call is, setting by setting: (Test System: AMES SALMONELLA TYPHIMURIUM, Strain/Indicator: TA100, Metabolic Activation: RAT, LIVER, MICROSOMES, PHENOBARBITAL, Method: PREINCUBATION) “inactive; negative”; (Test System: AMES SALMONELLA TYPHIMURIUM, Strain/Indicator: TA100, Metabolic Activation: RAT, LIVER, S-9, Method: PREINCUBATION) “active; positive”; (Test System: AMES SALMONELLA TYPHIMURIUM, Strain/Indicator: TA100, Metabolic Activation: S-9, Method: STANDARD PLATE) “inactive; negative”; under setting [3], “inactive; negative”; (Test System: AMES SALMONELLA TYPHIMURIUM, Strain/Indicator: TA1535, Metabolic Activation: S-9, Method: STANDARD PLATE) “inactive; negative”; under setting [4], “inactive; negative”. Moreover, the mutagenic call is “inactive; negative” (Test System: AMES SALMONELLA TYPHIMURIUM, Strain/Indicator: TA1537, Metabolic Activation: S-9, Method: STANDARD PLATE); “active; positive” (Test System: AMES SALMONELLA TYPHIMURIUM, Strain/Indicator: TA1538, Metabolic Activation: NONE, Method: STANDARD PLATE); “inactive; negative” (Test System: AMES SALMONELLA TYPHIMURIUM, Strain/Indicator: TA1538, Metabolic Activation: S-9, Method: STANDARD PLATE); “active; positive” (Test System: MOUSE LYMPHOMA, Strain/Indicator: 3.7.2C (TK+/TK-), Metabolic Activation: RAT OLFACTORY S-9, Method: SUSPENSION/PLATE).
As to `CCCCCCCCCC[N+](C)(C)Cc1ccccc1`, the mutagenic call by setting is: (Test System: AMES SALMONELLA TYPHIMURIUM, Strain/Indicator: TA97, Metabolic Activation: HAMSTER, LIVER, S-9, AROCLOR 1254 (10 OR 30%), Method: PREINCUBATION) “inactive; negative”; (Test System: AMES SALMONELLA TYPHIMURIUM, Strain/Indicator: TA97, Metabolic Activation: NONE, Method: PREINCUBATION) “inactive; negative”; (Test System: AMES SALMONELLA TYPHIMURIUM, Strain/Indicator: TA97, Metabolic Activation: RAT, LIVER, S-9, AROCLOR 1254 (10 OR 30%), Method: PREINCUBATION) “inactive; negative”; (Test System: AMES SALMONELLA TYPHIMURIUM, Strain/Indicator: TA98, Metabolic Activation: HAMSTER, LIVER, S-9, AROCLOR 1254 (10 OR 30%), Method: PREINCUBATION) “inactive; negative”; under setting [5], “inactive; negative”; (Test System: AMES SALMONELLA TYPHIMURIUM, Strain/Indicator: TA98, Metabolic Activation: RAT, LIVER, S-9, AROCLOR 1254 (10 OR 30%), Method: PREINCUBATION) “inactive; negative”. Moreover, the mutagenic call is, setting by setting: (Test System: AMES SALMONELLA TYPHIMURIUM, Strain/Indicator: TA100, Metabolic Activation: HAMSTER, LIVER, S-9, AROCLOR 1254 (10 OR 30%), Method: PREINCUBATION) “inactive; negative”; under setting [6], “inactive; negative”; (Test System: AMES SALMONELLA TYPHIMURIUM, Strain/Indicator: TA100, Metabolic Activation: RAT, LIVER, S-9, AROCLOR 1254 (10 OR 30%), Method: PREINCUBATION) “inactive; negative”; (Test System: AMES SALMONELLA TYPHIMURIUM, Strain/Indicator: TA1535, Metabolic Activation: HAMSTER, LIVER, S-9, AROCLOR 1254 (10 OR 30%), Method: PREINCUBATION) “inactive; negative”; (Test System: AMES SALMONELLA TYPHIMURIUM, Strain/Indicator: TA1535, Metabolic Activation: NONE, Method: PREINCUBATION) “inactive; negative”; (Test System: AMES SALMONELLA TYPHIMURIUM, Strain/Indicator: TA1535, Metabolic Activation: RAT, LIVER, S-9, AROCLOR 1254 (10 OR 30%), Method: PREINCUBATION) “inactive; negative”.
